From patent US12343326B2, “Psychoactive medicines and their use for treating psychiatric and neurological conditions and disorders” (Transcend Therapeutics, Inc., priority 2021, dated 2025)
Read-outs that look alike come from different tables or passages of the source.

Columns and labels:
[1] = molecular target: T1, 5HT2C receptor (Homo sapiens, UniProt P28335); experiment: GPCRmax screen, agonist mode; type: cell-based
T1 construct: beta-galactosidase enzyme fragment (PathHunter complementation tag); host or cells: PathHunter cell lines
T1 sequence (P28335 33-458): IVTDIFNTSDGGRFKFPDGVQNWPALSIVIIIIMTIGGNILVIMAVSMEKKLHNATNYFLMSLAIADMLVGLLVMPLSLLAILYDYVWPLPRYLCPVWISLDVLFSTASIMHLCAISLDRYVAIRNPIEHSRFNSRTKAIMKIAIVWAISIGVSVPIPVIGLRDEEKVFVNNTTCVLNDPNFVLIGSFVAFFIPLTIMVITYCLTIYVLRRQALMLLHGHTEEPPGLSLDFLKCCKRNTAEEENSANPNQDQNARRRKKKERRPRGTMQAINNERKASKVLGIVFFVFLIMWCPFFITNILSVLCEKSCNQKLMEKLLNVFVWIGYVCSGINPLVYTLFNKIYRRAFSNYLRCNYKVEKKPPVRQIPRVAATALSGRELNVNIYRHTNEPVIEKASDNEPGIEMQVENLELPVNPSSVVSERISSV

[2] = tested on: participants with PTSD; experiment: IMPACT-1 Part A open-label study of methylone for PTSD; type: in vivo, human
Excerpt: Brief Summary: This is a two-part study to assess methylone for the management of the symptoms of PTSD. Part A is an open-label, non-controlled assessment in up to 15 evaluable participants with PTSD to assess early safety and efficacy and to confirm procedures included in the blinded portion (Part B) of the study. After completion of Part A, enrollment for Part B will begin in up to 64 participants. Part B is identical to Part A with the exception of the inclusion of a placebo arm in Part B.
For each participant in Parts A and B, the study consists of: • Screening Period (Day −28 to Day −4): Informed consent, eligibility assessment, and enrolment of eligible participants. • Baseline/Preparatory Session (Day −3 to Day −1): Baseline assessments, confirmation of eligibility, and a preparatory psychoeducation session leading to enrolment confirmation. • Treatment Period (Day 1 to Day 24): Four weekly dose sessions, with associated remote sessions. The dose sessions last at least 8 hours, or until all effects (physical and psychological) have resolved (whichever is longer). Each dose session is followed by a safety phone call 1 day after dosing and efficacy assessments 2 days after dosing. Each dosing period is video recorded for quality and training purposes. The videos may be reviewed to ensure the Mentor is adhering to the Mentor training. • Follow-Up Period (Day 29 to Day 64): Follow-Up visits for safety and efficacy occur at 1, 2, 3 and 6 weeks post-final study drug administration. In addition, there are Mentor-Led Reflection Sessions 1, 2 and 3 weeks post-final study drug administration. Participants are contacted via telephone on Day 57 (±2 days) for Follow-Up. • Discontinuations: Participants who discontinue prematurely are asked to return for an extra visit to duplicate the 6-week end-of-study (EOS) visit.
Each dose was given as an initial dose, followed by a second dose 90 minutes later. During the dosing session, participants were accompanied by a trained Mentor who provided non-directive support. After the 4-week treatment period, participants attended follow-up visits at 1, 2, 3, and 6 weeks following the last dose. Safety was assessed via standard measures including adverse events. PTSD symptoms were assessed via Clinician-Administered PTSD Scale for DSM-5 (CAPS-5), depressive symptoms were assessed via Montgomery-Asberg Depression Rating Scale (MADRS). Anti-anxiety efficacy was evaluated using the Anxiety Sub-Scale of MADRS, namely, questions (Items 3, 4, 5, 6) that address four anxiety items (inner tension, reduced sleep, reduced appetite, concentration difficulties) Changes from baseline were analyzed using a paired t-test p-values.
Methods: The IMPACT-1 study is a multi-center, two-part clinical trial. Part A has completed and was an open-label evaluation involving 14 participants with PTSD. Eligible participants are adults with severe PTSD (CAPS-5≥35) who had failed at least 1 prior treatment (pharmacotherapy and/or psychotherapy) for PTSD. […] Throughout each dosing session, participants were provided non-directive psychological support by a trained mental health practitioner. Following the 4-week treatment period, participants were followed for an additional 6 weeks to evaluate the durability of the therapeutic effect. PTSD symptom improvement was evaluated on the CAPS-5. Functioning was assessed via the 3 domains (school/work, family life, social life) of the Sheehan Disability Scale (SDS). Global improvement was measured by the CGI-I. Safety was assessed by monitoring adverse events, vital signs, and C-SSRS.
Following the 4-week treatment period, participants were followed for an additional 6 weeks to evaluate the durability of the therapeutic effect. […]

[3] = molecular target: 168 GPCRs (Homo sapiens, UniProt O43613); experiment: β-arrestin based GPCR screen (PathHunter / GPCRmax), antagonist mode
168 GPCRs, sequence (O43613 whole entry): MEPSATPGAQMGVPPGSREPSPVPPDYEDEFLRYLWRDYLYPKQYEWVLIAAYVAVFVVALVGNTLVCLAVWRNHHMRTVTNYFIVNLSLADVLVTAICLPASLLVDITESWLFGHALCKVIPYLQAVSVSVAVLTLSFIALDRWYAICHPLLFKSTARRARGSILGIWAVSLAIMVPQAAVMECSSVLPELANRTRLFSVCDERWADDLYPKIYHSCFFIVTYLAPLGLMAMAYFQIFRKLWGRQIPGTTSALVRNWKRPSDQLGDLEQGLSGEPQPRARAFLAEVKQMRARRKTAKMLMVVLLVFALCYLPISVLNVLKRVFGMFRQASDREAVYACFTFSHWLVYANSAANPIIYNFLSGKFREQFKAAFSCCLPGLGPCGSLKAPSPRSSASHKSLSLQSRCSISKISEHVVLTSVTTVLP

[4] = molecular target: serotonin transporter (SERT) (Rattus norvegicus, UniProt P31652); experiment: [3H]5HT uptake saturation in rat brain synaptosomes with or without methylone; type: biochemical; conditions: two concentrations of methylone
serotonin transporter (SERT), sequence (P31652 whole entry): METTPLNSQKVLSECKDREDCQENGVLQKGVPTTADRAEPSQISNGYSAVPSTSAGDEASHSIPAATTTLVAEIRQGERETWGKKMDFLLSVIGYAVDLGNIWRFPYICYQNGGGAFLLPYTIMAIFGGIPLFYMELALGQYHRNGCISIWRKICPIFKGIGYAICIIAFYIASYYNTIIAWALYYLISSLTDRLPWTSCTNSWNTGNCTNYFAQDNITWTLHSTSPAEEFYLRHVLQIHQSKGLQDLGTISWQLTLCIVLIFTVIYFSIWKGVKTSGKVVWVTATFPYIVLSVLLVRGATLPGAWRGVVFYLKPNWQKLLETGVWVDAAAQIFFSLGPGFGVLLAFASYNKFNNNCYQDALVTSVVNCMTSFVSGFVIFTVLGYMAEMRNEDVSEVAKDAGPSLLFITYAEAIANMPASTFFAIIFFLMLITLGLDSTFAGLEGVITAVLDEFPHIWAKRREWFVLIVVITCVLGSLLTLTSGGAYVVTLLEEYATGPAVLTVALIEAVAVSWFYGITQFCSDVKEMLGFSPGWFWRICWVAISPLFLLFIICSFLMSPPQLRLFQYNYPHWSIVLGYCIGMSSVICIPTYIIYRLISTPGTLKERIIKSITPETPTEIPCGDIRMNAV

[5] = molecular target: T2, 5HT2A receptor (Homo sapiens, UniProt P28223); experiment: GPCRmax screen, agonist mode; type: cell-based
T2 construct: beta-galactosidase enzyme fragment (PathHunter complementation tag); host or cells: PathHunter cell lines
T2 sequence (P28223 whole entry, the tested form may be a part): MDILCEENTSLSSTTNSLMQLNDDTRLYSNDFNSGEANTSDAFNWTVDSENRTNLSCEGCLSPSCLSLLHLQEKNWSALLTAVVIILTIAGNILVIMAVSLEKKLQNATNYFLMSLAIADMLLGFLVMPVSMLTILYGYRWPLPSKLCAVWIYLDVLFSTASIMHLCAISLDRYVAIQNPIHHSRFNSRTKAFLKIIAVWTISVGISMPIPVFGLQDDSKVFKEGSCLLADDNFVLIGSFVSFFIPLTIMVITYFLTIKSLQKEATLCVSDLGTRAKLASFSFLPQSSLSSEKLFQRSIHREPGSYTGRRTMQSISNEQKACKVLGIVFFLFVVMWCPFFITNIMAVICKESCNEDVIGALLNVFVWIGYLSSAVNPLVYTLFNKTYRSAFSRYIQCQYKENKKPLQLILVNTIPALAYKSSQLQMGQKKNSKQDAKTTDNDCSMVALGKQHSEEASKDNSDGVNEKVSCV

[6] = cited from earlier work
[7] = tested on: C57BL/6J mice; experiment: Mouse head-twitch response (HTR) test; type: in vivo; conditions: i.p., any dose tested, HTR measured for 10 minutes
Description: Head twitch response (HTR) was evaluated using C57BL/6J mice (ages 7-10 weeks), Mice were ear tagged at least three days after arrival to the animal facility and allowed to rest for at least three days before behavioral testing. Small magnets (SuperMagnetMan—N45 magnet 3 mm diameter, 0.5 mm thickness) were glued to ear tags (Stoelting—La Pias Aluminum Ear Tags) at least two days before mice were ear tagged. The experimental setup was adapted from Gonzales-Maeso (de la Fuente Revenga et al., 2019) and Kwan (Jefferson et al., 2022; Savalia et al., 2021), including experimental apparatus and MATLAB code for analysis.
Doses were randomly assigned, and age-matched controls were injected with vehicle and randomly interspersed with drug conditions. At least three animals per sex were used for each drug dose and condition. If animals were used in multiple HTR experiments, experimental sessions took place at least one week apart. Two animals were run at a time. Immediately after i.p. injection of psychedelic or entactogen drug, animals were placed in separate plastic boxes within a larger chamber (Home Depot—28 in. W×32 in. H×21.5 in. D), and HTR was measured for 10 minutes. A small lamp was placed in the back of the larger chamber, and a high-speed camera (Basler—Aca 1920-155 μm) was suspended from the ceiling to record video of the animals in the plastic boxes. […]

[8] = across oral doses of 50 mg to 200 mg

CNC(C)C(=O)c1ccc2c(c1)OCO2 (centres unmarked) [methylone, 3,4-methylenedioxy-N-methylcathinone]
agonist % activity ([1]; 1 or 10 mM, threshold 30%): no agonist or antagonist activity | activity at 10 µM ([1]; HTR2C, Agonist mode, 10 uM): 3.7% | activity at 1 µM ([1]; HTR2C, Agonist, 1 uM): 1.4% | CAPS-5 scores decreased by ([2]; Day 3): 8.4 points | MADRS scores decreased by ([2]; Day 3): 8.2 points | drug-related SAEs ([2]; Safety Population, N = 14): No drug-related SAEs occurred | participants with absence of Distressing Dreams symptom ([2]; after treatment): 77% | participants with absence of Reduced Sleep symptom (MADRS) ([2]; after treatment): 62% | participants with absence of Sleep Disturbances symptom ([2]; after treatment): 62% | participants much or very much improved (CGI-I) ([2]; end of the study): all participants | activity at 10 µM ([3]; HCRTR1, Antagonist mode, 10 uM): 1.2% | activity at 1 µM ([3]; HCRTR1, Antagonist, 1 uM): 2.3% | type of interaction at the SERT ([4]; [3H]5HT saturation curves): competitive | effect on Bmax of [3H]5HT uptake [4]: no decrease in Bmax | effect on Kd of [3H]5HT uptake [4]: right shifted | agonist % activity ([5]; 1 or 10 mM, threshold 30%): no agonist or antagonist activity | activity at 10 µM ([5]; HTR2A, Agonist mode, 10 uM): 1.4% | activity at 1 µM ([5]; HTR2A, Agonist, 1 uM): -0.1% | half-life [6, 8]: 6 to 7 h | time to reach maximum concentrations (Tmax) [6, 8]: 1 to 2 h | AUC10 hr, geometric mean ([6]; oral 50 mg, N = 3): 725 ng·h/mL | Tmax, median ([6]; oral 50 mg, N = 3): 1.5 h | Cmax, geometric mean ([6]; oral 100 mg, N = 6): 283.9 ng/mL | Half-life, geometric mean ([6]; oral 100 mg, N = 6): 6.0 h | Tmax, median ([6]; oral 100 mg, N = 6): 2.5 h | AUC24 hr, geometric mean ([6]; oral 150 mg, N = 5): 3165 ng·h/mL | AUCinf, geometric mean ([6]; oral 150 mg, N = 5): 3509 ng·h/mL | Tmax, median ([6]; oral 150 mg, N = 5): 2 h | Half-life, geometric mean ([6]; oral 200 mg, N = 7): 6.5 h | Tmax, median ([6]; oral 200 mg, N = 7): 2 h | head-twitch behaviors [7]: no effect on head-twitch behaviors at any dose tested | head-twitch behaviors ([7]; listed as Methylone): no hallucinogenic activity
